The subject of one experiment is HAP40. As to the kind of experiment: Macrocycle precipitation (MP), co-purification of HAP40, LC-MS/MS. The class given is binding, human. The conditions noted are these: HEK293T lysate versus HTT CRISPR knockout line. The text has this:
To assess macrocycle selectivity and identify potential HTT interacting proteins, we performed LC-MS/MS analysis of the proteins in the MP eluates. To control for non-specific binding, we performed MPs using lysates from a HTT CRISPR knockout cell line ([Jung et al., 2021]). Across all macrocycles, HTT emerged as the most enriched protein after background subtraction (Figure 5b). Given we performed affinity purification using macrocycles targeting distinct HTT surfaces, we hypothesized that any real HTT protein binder might be co-purified with two or more macrocycles. […] In contrast, HAP40 was not enriched by HL5, consistent with its specificity for apo HTT.
Macrocycles were pre-conjugated to streptavidin beads (Cytiva, 17-5113-01) by incubating with a 30 μL slurry of beads per macrocycle purification (MP) in Lysis Buffer (10 mM Tris-HCl, pH 7.9, 150 mM NaCl, 0.1% NP-40, 1:500 protease inhibitor cocktail (Sigma-Aldrich), 1:1,000 benzonase nuclease, and 2 mM MgCl2) for 1 hour at 4°C. A concentration of 1.25 μM macrocycle was used for conjugation. After incubation, beads were washed three times with 500 μL Lysis Buffer to remove unbound macrocycles and resuspended in 500 μL of lysate at 4 mg/mL protein concentration.
Cells were harvested by centrifugation at 1,500 rpm for 5 minutes, washed twice with PBS, and snap-frozen. Cell pellets were then resuspended in 500 μL of Lysis Buffer (as described above) and incubated on an end-over-end rotator at 4°C for 1 hour. Lysates were clarified by centrifugation at 20,000g for 15 minutes at 4°C, and the supernatant was transferred to fresh 1.5 mL Eppendorf tubes. Protein concentration was determined by BCA assay (Thermo Fisher Scientific, 23225), yielding approximately 4 mg of protein on average. Lysates were diluted to a final concentration of 4 mg/mL for use, providing […] of total protein per MP.
Macrocycle-conjugated beads were incubated with 2 mg of lysate in Lysis Buffer for 1 hour at 4°C with rotation. After incubation, beads were collected by centrifugation at 3,000 rpm, and the flow-through was saved for analysis. Beads were then washed sequentially with 1 mL of Wash Buffer 1 (10 mM Tris-HCl, pH 7.9, 100 mM NaCl, 0.1% NP-40) and twice with Wash Buffer 2 (Wash Buffer 1 without detergent). Lastly, bound proteins were eluted from the beads with 200 μL of 0.5 M NH4OH and flash-frozen in liquid nitrogen.
All sample preparation, LC MS/MS data collection, and MS data searches were carried out at the SPARC BioCentre at The Hospital for Sick Children (Toronto, ON, Canada). […] Samples were analyzed by liquid chromatography tandem mass spectrometry (LC-MS/MS) using an EASY-nanoLC 1200 system with a 1 h analysis and an Orbitrap Fusion™ Lumos™ Tribrid™ Mass Spectrometer (Thermo Fisher Scientific). […]

The target of a further experiment is T1, HTTQ23-HAP40 (Homo sapiens, UniProt P23610+P42858, INS38QQ).
T1 construct: Full-length wildtype HTT with a polyQ tract of 23 glutamines; FLAG; made in house; host or cells: Sf9 insect cells (baculovirus)
T1 sequence (P42858 with tags, fused parts or gaps INS38QQ): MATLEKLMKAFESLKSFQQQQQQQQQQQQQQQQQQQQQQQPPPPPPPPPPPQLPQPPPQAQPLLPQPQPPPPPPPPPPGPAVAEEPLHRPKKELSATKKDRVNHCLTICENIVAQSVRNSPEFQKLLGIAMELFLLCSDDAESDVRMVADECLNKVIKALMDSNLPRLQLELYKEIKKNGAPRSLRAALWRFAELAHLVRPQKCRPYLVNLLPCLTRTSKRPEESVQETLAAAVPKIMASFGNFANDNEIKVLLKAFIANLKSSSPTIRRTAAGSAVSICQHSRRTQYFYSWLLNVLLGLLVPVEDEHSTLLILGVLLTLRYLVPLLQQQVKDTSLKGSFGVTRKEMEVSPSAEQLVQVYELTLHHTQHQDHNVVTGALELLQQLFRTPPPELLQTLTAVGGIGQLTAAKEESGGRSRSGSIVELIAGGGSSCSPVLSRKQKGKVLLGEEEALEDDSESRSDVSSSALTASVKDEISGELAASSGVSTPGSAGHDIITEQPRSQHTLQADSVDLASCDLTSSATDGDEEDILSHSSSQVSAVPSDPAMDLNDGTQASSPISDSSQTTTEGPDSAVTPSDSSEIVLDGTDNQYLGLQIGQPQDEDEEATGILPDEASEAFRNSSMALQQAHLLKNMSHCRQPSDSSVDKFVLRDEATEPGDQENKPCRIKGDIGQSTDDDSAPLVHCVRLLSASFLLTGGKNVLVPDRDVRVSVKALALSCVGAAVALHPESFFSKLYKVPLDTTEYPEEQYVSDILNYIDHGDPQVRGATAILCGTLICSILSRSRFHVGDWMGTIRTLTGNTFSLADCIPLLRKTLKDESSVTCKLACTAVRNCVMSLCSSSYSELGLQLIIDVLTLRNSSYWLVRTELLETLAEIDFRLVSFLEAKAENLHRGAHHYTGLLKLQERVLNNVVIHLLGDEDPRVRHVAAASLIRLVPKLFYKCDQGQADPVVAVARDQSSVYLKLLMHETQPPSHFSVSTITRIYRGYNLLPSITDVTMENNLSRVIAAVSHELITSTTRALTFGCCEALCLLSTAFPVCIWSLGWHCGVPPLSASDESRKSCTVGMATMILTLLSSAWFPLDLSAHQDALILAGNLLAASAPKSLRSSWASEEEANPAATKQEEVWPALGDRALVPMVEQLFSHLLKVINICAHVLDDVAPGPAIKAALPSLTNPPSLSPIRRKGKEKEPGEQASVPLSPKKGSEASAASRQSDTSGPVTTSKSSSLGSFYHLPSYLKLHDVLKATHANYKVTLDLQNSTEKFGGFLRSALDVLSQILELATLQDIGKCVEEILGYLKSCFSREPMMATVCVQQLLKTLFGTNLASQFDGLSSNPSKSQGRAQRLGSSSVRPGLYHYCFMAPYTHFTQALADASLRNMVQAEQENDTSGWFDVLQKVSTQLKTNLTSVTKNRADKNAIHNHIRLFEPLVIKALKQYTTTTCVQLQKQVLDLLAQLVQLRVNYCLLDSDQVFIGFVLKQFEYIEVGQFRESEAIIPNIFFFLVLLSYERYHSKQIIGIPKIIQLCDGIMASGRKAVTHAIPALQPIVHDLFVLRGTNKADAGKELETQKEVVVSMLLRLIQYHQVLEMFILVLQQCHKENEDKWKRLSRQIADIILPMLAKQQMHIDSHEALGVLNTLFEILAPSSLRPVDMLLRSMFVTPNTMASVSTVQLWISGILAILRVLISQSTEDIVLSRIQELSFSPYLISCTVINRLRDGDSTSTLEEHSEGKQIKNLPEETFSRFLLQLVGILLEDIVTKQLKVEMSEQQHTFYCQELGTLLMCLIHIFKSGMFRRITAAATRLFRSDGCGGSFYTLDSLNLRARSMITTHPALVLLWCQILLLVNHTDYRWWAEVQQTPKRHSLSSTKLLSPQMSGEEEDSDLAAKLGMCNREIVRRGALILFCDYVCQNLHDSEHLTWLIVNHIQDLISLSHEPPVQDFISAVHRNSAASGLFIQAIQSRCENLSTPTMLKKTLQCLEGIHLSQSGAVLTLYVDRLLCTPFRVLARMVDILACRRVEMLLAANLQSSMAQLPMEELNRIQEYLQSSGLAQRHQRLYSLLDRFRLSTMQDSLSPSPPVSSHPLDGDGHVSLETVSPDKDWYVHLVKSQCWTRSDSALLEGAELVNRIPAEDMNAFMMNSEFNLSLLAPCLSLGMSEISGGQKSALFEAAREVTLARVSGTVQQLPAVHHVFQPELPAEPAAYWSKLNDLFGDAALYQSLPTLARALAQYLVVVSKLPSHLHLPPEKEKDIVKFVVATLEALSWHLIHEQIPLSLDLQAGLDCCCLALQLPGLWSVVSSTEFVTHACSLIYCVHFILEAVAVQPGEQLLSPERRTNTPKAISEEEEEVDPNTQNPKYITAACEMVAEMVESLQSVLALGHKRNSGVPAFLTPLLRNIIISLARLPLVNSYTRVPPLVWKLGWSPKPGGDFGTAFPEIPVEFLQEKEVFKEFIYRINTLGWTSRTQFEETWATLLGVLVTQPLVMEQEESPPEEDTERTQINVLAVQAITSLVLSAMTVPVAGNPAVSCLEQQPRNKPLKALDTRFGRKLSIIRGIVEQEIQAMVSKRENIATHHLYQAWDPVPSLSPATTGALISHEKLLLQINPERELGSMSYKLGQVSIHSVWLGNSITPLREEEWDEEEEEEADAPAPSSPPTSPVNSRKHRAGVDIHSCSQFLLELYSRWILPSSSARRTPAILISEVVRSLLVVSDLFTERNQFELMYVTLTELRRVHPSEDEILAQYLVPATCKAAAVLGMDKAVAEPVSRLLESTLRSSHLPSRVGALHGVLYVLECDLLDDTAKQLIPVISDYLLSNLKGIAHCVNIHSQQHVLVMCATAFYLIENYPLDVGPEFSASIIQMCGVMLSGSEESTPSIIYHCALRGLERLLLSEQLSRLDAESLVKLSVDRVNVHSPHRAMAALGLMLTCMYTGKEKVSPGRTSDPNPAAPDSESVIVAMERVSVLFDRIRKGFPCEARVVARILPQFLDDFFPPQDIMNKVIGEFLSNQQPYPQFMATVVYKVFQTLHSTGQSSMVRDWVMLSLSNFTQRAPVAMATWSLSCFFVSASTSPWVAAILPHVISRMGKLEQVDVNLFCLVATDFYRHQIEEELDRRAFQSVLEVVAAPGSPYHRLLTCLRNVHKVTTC
T1 sequence (P23610 whole entry, stated change not applied): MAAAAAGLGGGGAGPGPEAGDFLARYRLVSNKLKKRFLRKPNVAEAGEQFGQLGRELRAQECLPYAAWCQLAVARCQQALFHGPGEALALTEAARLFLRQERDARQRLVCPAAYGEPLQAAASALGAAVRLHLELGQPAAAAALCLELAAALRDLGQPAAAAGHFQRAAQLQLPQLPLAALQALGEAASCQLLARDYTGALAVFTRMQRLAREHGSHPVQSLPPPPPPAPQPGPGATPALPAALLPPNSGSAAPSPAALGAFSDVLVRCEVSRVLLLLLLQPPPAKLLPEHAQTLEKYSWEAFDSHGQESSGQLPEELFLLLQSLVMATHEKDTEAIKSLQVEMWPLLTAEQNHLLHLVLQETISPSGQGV
As to the kind of experiment: Differential hydrogen-deuterium exchange mass spectrometry (ΔHDX-MS). Format: binding. The conditions noted are these: 15 μM protein, 1:4 macrocycle, labeling 0.5, 5, 30 mins at 20 °C. The procedure: Samples were labeled at 3 timepoints (0.5, 5, 30 mins) with 87% (v/v) deuteration buffer (10 mM Phosphate Buffer pD 7.5, 150 mM NaCl) at 20 °C. The HDX reaction was quenched at 50% (v/v) with 7.5 M Guanidine-HCl, 0.5 M TCEP, 100 mM Phosphate Buffer pH 2.5 at 0 °C for 2 min and subsequently diluted with an equal volume of quench dilution buffer (100 mM Phosphate Buffer, pH 2.5). The protein was digested using 1:1 Nepenthesin(II)-Pepsin (Affipro) followed by desalting (ACQUITY UPLC BEH C18 VanGuard Pre-column, Waters) and reverse-phase separation (ACQUITY UPLC BEH C18 Column, Waters). Liquid handling was achieved using the ACQUITY UPLC M-Class System with HDX Technology (Waters) and PAL3 Robotic Tool Change (LEAP, Trajan Scientific and Medical). The peptides were then analyzed using the Select Series Cyclic IMS mass spectrometer (Q-IMS-TOF, Waters). Peptide identification and HDX data analysis were achieved using ProteinLynx Global Server 3.0.3 (Waters) and DynamX 3.0 (Waters), respectively. Microsoft Excel and PyMOL 2.5 were used for visual presentation of HDX data. An AlphaFold 3 model was used to incorporate missing loops for depicting HTTQ23 and HTTQ23-HAP40. The peptide sequence coverage for HTT and HAP40 was 56.6–76.8% and 77.4–82%, respectively (Supplementary Figure 3–5). […]

Where a SMILES comes first, the peptide text is derived from it. Bridges are numbered along the chain shown (N, C = ends).

In the case of `CC[C@H](C)[C@@H]1NC(=O)[C@H](Cc2c[nH]c3ccccc23)NC(=O)[C@@H]2CCCN2C(=O)[C@H](C)NC(=O)[C@H](C(C)C)NC(=O)[C@H](CCC(N)=O)NC(=O)[C@H](Cc2ccccc2)NC(=O)[C@H](Cc2c[nH]cn2)NC(=O)[C@H]([C@@H](C)O)NC(=O)[C@H](Cc2ccc(O)cc2)NC(=O)CSC[C@@H](C(N)=O)NC(=O)[C@H](CC(C)C)NC(=O)[C@H](CO)NC(=O)[C@H](CCC(N)=O)NC1=O` [HL5] ({CH2CO}-YTHFQVAPWIQSLC-NH2; thioether N-14; C-terminus assumed), the “Enrichment of HAP40 in macrocycle pulldowns” value in the experiment with HAP40 is “not enriched”. In addition, at HTTQ23-HAP40, the “Cumulative ΔHDX of HTTQ23-HAP40 on incubation with macrocycle” value is “no statistically significant cumulative HDX differences”.

These data come from publication doi:10.1101/2025.08.06.668955, “High-Affinity, Structure-Validated and Selective Macrocyclic Peptide Tools for Chemical Biology Studies of Huntingtin” (bioRxiv, 2025).
